Results from patent US11925616B2, “Compositions comprising urolithin compounds” (Amazentis SA, priority 2015, dated 2024).

Tests used:
in vivo = assay: in vivo; set-up: species or system male Sprague-Dawley rats; details: male, Sprague-Dawley, rat, po, 25 mg/kg
Experimental: The solutions for gavage were prepared as follows: 35 mg of urolithin A powder was diluted in 7 ml of 15% DMSO, 0.5% methyl cellulose/0.25% Tween 80 in water, resulting in a 5 mg/ml fine suspension. The DMSO was obtained from BDH, methyl cellulose was obtained from Sigma, and Tween 80 was obtained from Sigma-Aldrich.
Blood was collected from the rats by jugular vein cannulation at different time points, and urolithin A was quantified in the plasma to determine its pharmacokinetic profile following oral gavage of Sample #1, Sample #2, and Sample #3. The study was repeated on three rats for each sample. […]

[1] = Particle size determinations for urolithin A; assay type: physicochemical; details: for D10 / D50 / D90: Malvern Particle Size analyzer, before and after micronization
Experimental: The particle size of urolithin A was reduced in a controlled manner using an MC50 Spiral Jetmill, using filtered nitrogen, with a feed rate of 240 g/hr, a Venturi pressure of 12 bar, and a mill pressure of 12 bar. Different particle size distributions of urolithin A were determined on a Malvern Particle Size analyzer (Malvern Instruments, UK). Three samples were evaluated in depth.

myotubes = details: in vitro; cited from earlier work
[2] = micronized urolithin used in the formulations of Example 1

SMILES | Cmax (in vivo) [ng/mL] | Relative Cmax (% of non-micronized Cmax) (in vivo) [%] | Relative bioavailability (% AUC of non-micronized urolithin A) (in vivo) [%] | AUC (in vivo; AUC) [ng·h/mL] | Tmax (in vivo; Tmax (h)) [min] | D10 [1] [μm] | D50 [1] [μm] | D90 [1] [μm] | D10, actual particle size [1, 2] [μm] | D50, actual particle size [1, 2] [μm] | D90, actual particle size [1, 2] [μm] | AUC (in vivo) [ng·h/mL] | Tmax (in vivo) [min] | fold increase in the Cmax in comparison to Sample #1 (in vivo) [fold] | increase in the AUC in comparison to Sample #1 (in vivo) [%] | relative increase in the Cmax in comparison to Sample #1 (in vivo) [%] | effect on mean diameter of myotubes (myotubes)
O=c1oc2cc(O)ccc2c2ccc(O)cc12 [Sample #1, Urolithin A] | 17.1 | 100 | 100 | 75.1 | 15 | 1.03 | 53.4 | 365 |  |  |  |  |  |  |  |  | 
O=c1oc2cc(O)ccc2c2ccc(O)cc12 [Sample #2, Urolithin A] | 37 | 216 | 128 |  |  | 0.272 | 2.17 | 6.84 |  |  |  | 96.2 | 19.8 | 2.16 | 28 | 116 | 
O=c1oc2cc(O)ccc2c2ccccc12 [Urolithin B] |  |  |  |  |  |  |  |  |  |  |  |  |  |  |  |  | increased the mean diameter of myotubes

Now from value to compound, other results behind:

Cmax (in vivo) [ng/mL] | Relative Cmax (% of non-micronized Cmax) (in vivo) [%] | Relative bioavailability (% AUC of non-micronized urolithin A) (in vivo) [%] | AUC (in vivo; AUC) [ng·h/mL] | Tmax (in vivo; Tmax (h)) [min] | D10 [1] [μm] | D50 [1] [μm] | D90 [1] [μm] | D10, actual particle size [1, 2] [μm] | D50, actual particle size [1, 2] [μm] | D90, actual particle size [1, 2] [μm] | AUC (in vivo) [ng·h/mL] | Tmax (in vivo) [min] | fold increase in the Cmax in comparison to Sample #1 (in vivo) [fold] | increase in the AUC in comparison to Sample #1 (in vivo) [%] | relative increase in the Cmax in comparison to Sample #1 (in vivo) [%] | SMILES | effect on mean diameter of myotubes (myotubes)
 |  |  |  |  |  |  |  | 0.7 | 3.9 | 11.5 |  |  |  |  |  | O=c1oc2cc(O)ccc2c2ccc(O)cc12 [Urolithin A] | not seen
17.4 | 102 | 126 |  |  | 0.597 | 5.67 | 40.1 |  |  |  | 94.8 | 30 |  | 26 |  | O=c1oc2cc(O)ccc2c2ccc(O)cc12 [Sample #3, Urolithin A] | 
